{
  "source": "patent US7344710B2",
  "about": "(priority 2001, dated 2008)",
  "key": {"[1]": {"conditions": "mouse, in vivo"}, "[2]": {"test_system": "B16 tumors", "design": "species or system mice", "conditions": "mouse, in vivo"}, "[3]": {"test_system": "HCT116 tumor xenograft", "design": "species or system mice", "conditions": "mouse, in vivo"}},
  "data": [
    {"substance": "COBALT", "values": [
      {"measurement": "Deaths after a single dose of COBALT", "setting": "[1]", "result": "three of the mice died"},
      {"measurement": "Deaths after the first dose of COBALT", "setting": "[1]", "result": "Four mice died"},
      {"measurement": "Effect on tumor growth (FIG. 6C)", "setting": "[2]", "result": "tumors remained small over the four week course of this experiment"},
      {"measurement": "Effect on tumor growth (FIG. 6A, 6B)", "setting": "[3]", "result": "tumors actually shrinking rather than simply slowing"},
      {"measurement": "Mice cured / complete tumor regression / long-term tumor-free survival", "setting": "[3]", "result": "four were apparently cured of their tumor and Four of these seven mice were cured and four of eight and half"},
      {"measurement": "Mice developing striking hemorrhagic necrosis of their tumors", "setting": "[3]", "result": "seven of eight"},
      {"measurement": "Time at which a black spot of hemorrhagic necrosis is evident", "setting": "[3]", "result": 0.3, "unit": "days"},
      {"measurement": "Visible hemorrhagic necrosis and disappearance of tumors (FIG. 5)", "setting": "[3]", "result": "dramatic effects on large subcutaneous tumors"}
    ]}
  ]
}
